Measured values as given in patent EP0839036B1, “USE OF 1,4-DIHYDROPYRIDINE DERIVATIVES IN THE PREVENTION AND THERAPY OF ATHEROSCLEROTIC DEGRADATION OF ARTERIAL WALLS” (RECORDATI S.A. CHEMICAL and PHARMACEUTICAL COMPANY, priority 1995, dated 1997).
Read-outs that look alike come from different tables or passages of the source.

Experiments:
[1] = system: Human vascular myocytes (A 617 from human femoral artery); test: Myocytes growth inhibition measured by cell count (human); type: cell-based; settings: cell count after 72 hours with 10% fetal calf serum, read-out: IC50 (concentration required to inhibit cell growth by 50%)
Procedure: Migration of myocytes was investigated for the present invention using rat aortic smooth muscle cells in the presence of fibrinogen as chemotactic factor, whereas for studies on their proliferation rat and human cells were used. Cell count and [^3H]-thymidine incorporation were used to evaluate myocytes growth. The methodology was as follows:
Myocytes were cultured from the intima-medial layer of the aortas of male Sprague-Dawley rats (200-250 g). Cells were grown in monolayers at 37°C in a humidified atmosphere of 5% CO2 in Eagle's minimum essential medium supplemented with 10% (v/v) fetal calf serum, 100 U/ml penicillin, 0.1 mg/ml streptomycin, 20 mM tricine buffer and 1% (v/v) non-essential amino acid solution. The medium was changed every third day. Cells were used between the 4th and 10th passage. Cell viability was timely assessed by tripan blue exclusion. Myocytes were identified for growth behaviour, morphology and using monoclonal antibody specific for a-actin, the actin isoform typical of myocytes. Human vascular myocytes (A 617 from human femoral artery) were grown in the same culture conditions. […] Cell proliferation was evaluated by cell count after trypsinization of the monolayers using a Coulter Counter model ZM. Cell viability was assessed by tripan blue exclusion, and found to be higher than 95% at the drug concentrations used.

LDL = test: Cu++-mediated LDL oxidation, conjugated diene formation at 234 nm; type: physicochemical, human; parameters: Lag time: unit: min; settings: for Lag time: 20 µM CuSO4, 25°C
Procedure: Lercanidipine antioxidant capacity was evaluated by incubating LDL With 20 µM Cu^++ in the presence or absence of different concentrations of the tested compound (0.01 µM - 50 µM). LDL oxidation Was followed by monitoring conjugated diene formation at 234 nm. The experimental conditions were as follows. LDL (d = 1.019-1.063) were isolated from human pooled plasma by sequential ultracentrifugation at 4°C and 40,000 rpm in a 50Ti rotor, using a L5-50 ultracentrifuge (Beckman, Palo Alto, CA). LDL were then dialyzed against 0.15 M NaCl containing 0.01% ethylenediaminetetraacetic acid pH 7.4, sterilized by filtration through a […] millipore filter and kept at 4°C under nitrogen in the dark until use (up to 3 weeks). Before use LDL were dialysed against ethylenediaminetetraacetic acid free phosphate buffered saline pH 7.4 on Sephadex G-25 columns (PD-10, Pharmacia Fine Chemicals, Uppsala, Sweden) and then LDL were filtered through a sterile 0.22 µM filter. LDL in phosphate buffered saline (50 µg lipoprotein protein/ml) were oxidized by incubation at 25°C with 20 µM CuSO4 for 3 hours. The lercanidipine solution was prepared as a 10^-2 M stock solution in methanol and added as ethanol solution (maximum 1% v/v) prior to addition of copper. The effect of lercanidipine on the oxidation of LDL was determined by continuous monitoring the conjugated diene formation by recording the increase in the absorbance at 234 nm at 5 min intervals during a three hours period, against a phosphate buffered saline blank, using a UV spectrophotometer (Beckman DU 640) with continuous reading with a automatic 6-cell changer. The lag time of the onset of oxidation was calculated as the intercept between the line of the maximum slope of the propagation phase and the baseline where absorbance was that at time 0.

[2] = system: cell-mediated oxidation of LDL; test: Time course of cell-mediated LDL oxidation; type: cell-based; settings: 30 µM, after 10 hours incubation; Figure 7
Procedure: The antioxidant capacity of lercanidipine and its enantiomers was investigated also on cell-mediated oxidation. This was evaluated by incubating ethylenediaminetetraacetic acid free LDL under sterile conditions With 5 µM Cu^++ (100 µg Apo B/ml) in the presence of J774 cells or alternatively with EAhy-926 cells. Oxidation was blocked after 22 hours incubation by adding butylated hydroxytoluene to the medium (final concentration 40 µM) dissolved in ethanol. The extent of lipid peroxidation was measured by determining the percentage inhibition of aldehydic breakdown products using the thiobarbituric acid assay [A.N. Hanna et al., Biochem. Pharmacol. 45, 753 (1993)]. Briefly, to 0.250 ml of the incubated samples, 0.750 ml of trichloroacetic acid ([…]) was added followed by 0.750 ml of thiobarbituric acid (0.67% w/v). The samples were heated at 100°C for 20 min, followed by cooling and centrifugation. Malondialdehyde equivalents were calculated using 1,1,3,3-tetramethoxy-propane as standard.
In the above experiments of cell-mediated oxidation the effects of lercanidipine were investigated after 22 hours incubation. […]

renal hypertensive dogs = test: Blood pressure in renal hypertensive dogs, oral administration; type: in vivo, beagle dogs; settings: for ED25 (dose inducing 25% decrease in DBP at peak effect), 95% C.L.: renal hypertensive dogs, linear regression analysis
Procedure: The antihypertensive effects of oral assumption of lercanidipine and its enantiomers were tested in renal hypertensive dogs.
Male beagle dogs weighing 12-13 kg, aged 1-3 years (Nossan Allevamenti, Italy) were used. Chronic sustained hypertension was induced by bilateral renal artery constriction, according to the Goldblatt method "two-kidney, two clip hypertension". Under barbiturate anaesthesia (35 mg/kg iv.) during two different surgical interventions one month apart from each other, both renal arteries were clipped with original renal silver clips and narrowed by about 60-70 %. After two months from the last intervention, an experimental renal hypertension was produced and the animals were suitable for the implantation of a catheter. Under sodium pentobarbital anaesthesia (35 mg/kg iv.), in sterile conditions, the dogs were catheterized by inserting an indwelling cannula (PE 200 Clay Adams) into the ascending aorta through the right common carotid artery. The catheter was subcutaneously exteriorized at the back of the neck, filled with heparinized saline solution and daily flushed to prevent clotting. After a week to recover from surgery, the animals were connected to a HP 1290A pressure transducer connected to an HP 8805B carrier amplifier of a Hewlett Packard HP 7700 multichannel polygraph, in order to monitor the arterial blood pressure. Heart rate was manually computed from the pressure trace.
All animals were alternatively treated with placebo, lercanidipine and its (R)- and (S)-enantiomers. The drugs were administered by the oral route with a straight round aseptic tip catheter (Pores Serlat - France). The drugs were suspended in aqueous 0.5% Methocel A4C plus Antifoam M10 (10%). The administered volume was 1 ml/kg. The suspending medicine was used as placebo. During experimental performance, the arterial blood pressure was continuously recorded 30 minutes before (Basal Values) and up to 8 hours after drug administration.
The ED25 values (dose inducing 25% decrease in DBP at peak effect) were evaluated by linear regression analysis and are summarized in Table 4.

[3] = system: macrophages loaded with cholesterol ester; test: Cholesterol esterification in macrophages loaded with cholesterol ester; type: cell-based, mouse; settings: Figure 4; for relative potency on cholesterol esterification: cholesterol ester loaded macrophages
Procedure: Cholesterol esterification induced by AcLDL in mouse peritoneal macrophages was investigated as follows. Mouse peritoneal macrophages were obtained by peritoneal lavage from mice (Balb/c Charles River, Calco, Italy) three days after intraperitoneal injection of thioglycolate. Cells (2-3x10^6) were plated in 35 mm wells with Dulbecco's minimum essential medium containing 10% fetal bovine serum. After 3 hours, the dishes were washed to eliminate unattached cells and maintained in Dulbecco's minimum essential medium plus 10% fetal bovine serum for 24 hours before use. After cell plating, experiments were performed at 37°C in serum free Dulbecco's minimum essential medium containing 0.2% essentially fatty acid-free bovine serum albumin plus the indicated additions. Human LDL (d=1.019-1.063 g/ml) were isolated from plasma of healthy volunteers by sequential ultracentrifugation (Beckman L5-50, Palo Alto, CA). For acetylation, LDL were dialysed against 0.15 M NaCl, pH 7.4, diluted with an equal volume of saturated sodium acetate and treated with acetic anhydride. For [^125I]AcLDL, lipoproteins were labelled with sodium [^125I]iodide desalted by gel filtration on Sephadex G-25 eluted with phosphate buffered saline. Specific activity was 100-200 cpm/ng protein. Trichloroacetic acid non precipitable radioactivity was below 2% of total. All lipoproteins were sterile filtered. Cells were incubated for 24 hours with the tested compounds. After substitution of the medium with an identical one, incubation was continued for additional 24 hours. During this second incubation [^125I]AcLDL were added (50 µg/ml). Cholesterol esterification was measured after addition of [1-^14C] oleic acid ([…] sample) complexed with bovine serum albumin during the last 1 or 2 hours of incubation and subsequent determination of radioactivity associated with cellular cholesteryl esters. Where indicated cells were enriched with cholesterol by 24 hours incubation with 50 µg/ml of AcLDL before drug addition and experimental determinations.
Another set of experiments was performed to evaluate the effect of lercanidipine on cholesterol esterification in macrophages loaded with cholesterol ester before the addition of the compound, this condition being the same as in foam cells. Cells are loaded with cholesteryl esters by exposure for 24 hours to a medium containing 50 µg acetyl LDL.

[4] = system: rat aortic smooth muscle cells (myocytes); test: Myocytes growth inhibition measured by cell count (rat); type: cell-based; settings: 72 h, cell count after 72 hours with 10% fetal calf serum, read-out: IC50 (concentration required to inhibit cell growth by 50%)
[5] = system: mouse peritoneal macrophages; test: Cholesterol esterification induced by AcLDL in macrophages; type: cell-based; settings: comparison of lercanidipine and enantiomers; Figure 3
Procedure: Cholesterol esterification induced by AcLDL in mouse peritoneal macrophages was investigated as follows. Mouse peritoneal macrophages were obtained by peritoneal lavage from mice (Balb/c Charles River, Calco, Italy) three days after intraperitoneal injection of thioglycolate. Cells (2-3x10^6) were plated in 35 mm wells with Dulbecco's minimum essential medium containing 10% fetal bovine serum. After 3 hours, the dishes were washed to eliminate unattached cells and maintained in Dulbecco's minimum essential medium plus 10% fetal bovine serum for 24 hours before use. After cell plating, experiments were performed at 37°C in serum free Dulbecco's minimum essential medium containing 0.2% essentially fatty acid-free bovine serum albumin plus the indicated additions. Human LDL (d=1.019-1.063 g/ml) were isolated from plasma of healthy volunteers by sequential ultracentrifugation (Beckman L5-50, Palo Alto, CA). […] Trichloroacetic acid non precipitable radioactivity was below 2% of total. […] Cholesterol esterification was measured after addition of [1-^14C] oleic acid ([…] sample) complexed with bovine serum albumin during the last 1 or 2 hours of incubation and subsequent determination of radioactivity associated with cellular cholesteryl esters. […]

COC(=O)C1=C(C)NC(C)=C(C(=O)OC(C)(C)CN(C)CCC(c2ccccc2)c2ccccc2)C1c1cccc([N+](=O)[O-])c1 (racemic) [Lercanidipine, methyl 1,1,N-trimethyl-N-(3,3-diphenylpropyl)-2-aminoethyl 1,4-dihydro-2,6-dimethyl--4-(3-nitrophenyl)-pyridine-3,5-dicarboxylate]
IC50 [1]: 25.3 µM
effect on the lag-phase of LDL oxidation (LDL; 10 µM): doubled the lag-phase of LDL oxidation
potency on LDL oxidation compared with lacidipine (LDL; "in these assays" (LDL oxidation)): one order of magnitude higher than that of lacidipine
Lag time (LDL; Lercanidipine 0.5 µM): 45.1 ± 3.7
Lag time (LDL; Lercanidipine 1.0 µM): 49.8 ± 4.7
Lag time (LDL; Lercanidipine 2.5 µM, P < 0.05): 53.6 ± 3.3
Lag time (LDL; Lercanidipine 5.0 µM, P < 0.01): 73.2 ± 4.8
Lag time (LDL; Lercanidipine 10.0 µM, P < 0.01): 112.7 ± 5.2
inhibition of lipid oxidation [2]: very high inhibition of lipid oxidation
effect on arterial blood pressure (renal hypertensive dogs): dose-related decrease in arterial blood pressure
IC50 ([3]; Mus musculus, Macrophage, cells loaded 24 hours with 50 µg acetyl LDL): ~7 µM
inhibition of cholesterol esterification ([3]; maximum, cells loaded 24 hours with 50 µg acetyl LDL): up to 70%
IC50 ([4]; Myocytes from SD Rat): 31.2 µM
IC50 ([4]; Myocytes from SHR Rat): 14.1 µM
IC50 ([4]; Myocytes from WK Rat): 16.4 µM

COC(=O)C1=C(C)NC(C)=C(C(=O)OC(C)(C)CN(C)CCC(c2ccccc2)c2ccccc2)[C@@H]1c1cccc([N+](=O)[O-])c1 [(R)-Lercanidipine, (R)-(-)-methyl 1,1-N-triethyl-N-(3,3-diphenylpropyl)-2-aminoethyl 1,4-dihydro--2,6-dimethyl-4-(3-nitrophenyl)-pyridine-3,5-dicarboxylate]
relative activity on cholesterol esterification induced by AcLDL [5]: most active compound
ED25 (dose inducing 25% decrease in DBP at peak effect), 95% C.L. (renal hypertensive dogs): > > 30 mg/kg
relative potency on cholesterol esterification [3]: slightly more potent than the racemate

COC(=O)C1=C(C)NC(C)=C(C(=O)OC(C)(C)CN(C)CCC(c2ccccc2)c2ccccc2)[C@H]1c1cccc([N+](=O)[O-])c1 [(S)-Lercanidipine, (S)-(+)-methyl 1,1-N-trimethyl-N-(3,3-diphenylpropyl)-2-aminoethyl 1,4-dihydro--2,6-dimethyl-4-(3-nitrophenyl)-pyridine-3,5-dicarboxylate]
antihypertensive efficacy compared with the racemate (renal hypertensive dogs): two fold more efficacious than the racemate
effect on arterial blood pressure (renal hypertensive dogs): dose-related decrease in arterial blood pressure
ED25 (dose inducing 25% decrease in DBP at peak effect), 95% C.L. (renal hypertensive dogs): 0.4 (0.3 ö 0.7) mg/kg
relative potency on cholesterol esterification [3]: least potent among the compounds tested

CCOC(=O)C1=C(C)NC(C)=C(C(=O)OCC)C1c1ccccc1/C=C/C(=O)OC(C)(C)C [LA, Lacidipine, reference compound]
IC50 ([4]; Myocytes from SD Rat): 23.6 µM

COC(=O)C1=C(C)NC(C)=C(C(=O)OCCN(C)Cc2ccccc2)C1c1cccc([N+](=O)[O-])c1 (stereo not drawn) [NI, Nicardipine, reference compound]
IC50 ([4]; Myocytes from SD Rat): 38.8 µM
